Data set [1] can be described thus: Toxicity in NCG mouse […] with human U87 cells assessed as liver damage at 2.5 mg/kg, ip administered every other day for 5 days and measured after 7 days post first dose by H and E staining based assay. It counts as organism-based. As to conditions: in vivo, 168 h, time 7 day.
The species named for data set [2] is Homo sapiens. Nature of the data set: Binding affinity to CM5 sensor chip immobilized human ID2 assessed as association constant by SPR analysis. To be noted: filed as antagonist. (In SPR one partner is held on a chip, and binding of the other changes the refractive index at the surface.)
The nature of data set [3]: Toxicity in NCG mouse […] with human U87 cells assessed as lung damage at 2.5 mg/kg, ip administered every other day for 5 days and measured after 7 days post first dose by H and E staining based assay. As to conditions: in vivo, 168 h, time 7 day. It is filed as organism-based.
A short description of data set [4]: Toxicity in NCG mouse […] with human U87 cells assessed as kidney damage at 2.5 mg/kg, ip administered every other day for 5 days and measured after 7 days post first dose by H and E staining based assay. It is filed as organism-based. To be noted: in vivo, 168 h, time 7 day.
In data set [5] the test system is U87. Nature of the data set: Inhibition of ID2/KDR signalling in human U87 cells assessed as reduction in ID2 mRNA expression at 12.5 to 50 uM measured after 24 hrs by qRT-PCR analysis. It is filed as cell-based. As to conditions: filed as antagonist, dose 12.5-50 µM. (In general: Quantitative PCR measures a nucleic acid by following its amplification.)
Data set [6] has as its system GL261. Put plainly: Cytotoxicity against mouse GL261 cells assessed as reduction in cell viability incubated for 24 hrs by CCK8 assay. It is filed as functional, cell-based. As to conditions: GL261, 24 h. Background: Formazan colour is commonly taken as a measure of viable cells.
Data set [7] concerns GL261. Put plainly: Induction of apoptosis in mouse GL261 cells assessed as late apoptotic cells at 25 uM measured after 24 hrs by annexin V-FITC/propidium iodide staining based flow cytometry analysis (reference value: 1.01%). It counts as functional.
The test system of data set [8] is U-87 MG. Nature of the data set: Antimigratory activity against human U87 cells assessed as inhibition of cell migration measured after 24 hrs by crystal violet staining based inverted microscopic analysis. It counts as functional. To be noted: U-87MG ATCC.
For data set [9], the system named is GL261. Nature of the data set: Antimigratory activity against mouse GL261 cells assessed as reduction in wound closure at 12.5 uM measured up to 24 hrs by scratch wound healing assay (Rvb =63.3+/-0.78%). It is filed as functional. On the set-up: scale not given: the % may be the effect or the level left. As to conditions: time hrs <=24.
Data set [10] is described as follows: Toxicity in NCG mouse xenografted with human U87 cells assessed as heart damage at 2.5 mg/kg, ip administered every other day for 5 days and measured after 7 days post first dose by H and E staining based assay. It is filed as organism-based. As to conditions: in vivo, 168 h, time 7 day.
The subject of data set [11] is GL261. Nature of the data set: Induction of apoptosis in mouse GL261 cells assessed as early apoptotic cells at 50 uM measured after 24 hrs by annexin V-FITC/propidium iodide staining based flow cytometry analysis (reference value: 1.61%). It counts as functional.

Active and inactive are the calls of the source. The rule behind the calls is not given here.

A word on the IC50: it is the point on the concentration scale where inhibition reaches its midpoint. On to `O=C(C[C@@]1(O)C(=O)N(Cc2cccc(Cl)c2)c2ccccc21)c1ccccn1`, for which the Activity entry was “Non-Toxic” in data set [1]; “Non-Toxic” in [3]; “Non-Toxic” in data set [4]; 16% in data set [7]; “Dose-Dependent Effect” in data set [8]; 13.11% in [9]. In addition, the Activity entry in data set [10] was “Non-Toxic”; in data set [11] it was 13.1%. Moreover, the Ka in data set [2] was determined as 24.8 M⁻¹ s⁻¹. Besides, the inhibition result in data set [5] is “Active”. For the same molecule, the IC50 in data set [6] is 38.2 µM.

Values taken from ChEMBL document CHEMBL5029168, “Discovery of novel ID2 antagonists from pharmacophore-based virtual screening as potential therapeutics for glioma” (Bioorg Med Chem, 2021).
